# Experimental data from article PMC7004565, “Nucleotide inhibition of the pancreatic ATP-sensitive K^+ channel explored with patch-clamp fluorometry” (eLife, 2020).
# “And” between values parts separate entries of the source, which are not always exact repeats. Equal entries are not always repeated. Where two headings read alike, the source gives them in different places.
# Assays:
# Kir6.2-GFP + SUR1 = Kir6.2-GFP + SUR1 (Homo sapiens, UniProt Q14654); assay: Current inhibition in excised inside-out patches; assay type: biochemical; design: ANAP labelling is specific and only full-length Kir6.2 is expressed at the cell membrane; expressed in transfected cells; host or cells: HEK-293T; details: Mg2+-free, Hill fit
# Sequence of Kir6.2-GFP + SUR1 (Q14654 whole entry): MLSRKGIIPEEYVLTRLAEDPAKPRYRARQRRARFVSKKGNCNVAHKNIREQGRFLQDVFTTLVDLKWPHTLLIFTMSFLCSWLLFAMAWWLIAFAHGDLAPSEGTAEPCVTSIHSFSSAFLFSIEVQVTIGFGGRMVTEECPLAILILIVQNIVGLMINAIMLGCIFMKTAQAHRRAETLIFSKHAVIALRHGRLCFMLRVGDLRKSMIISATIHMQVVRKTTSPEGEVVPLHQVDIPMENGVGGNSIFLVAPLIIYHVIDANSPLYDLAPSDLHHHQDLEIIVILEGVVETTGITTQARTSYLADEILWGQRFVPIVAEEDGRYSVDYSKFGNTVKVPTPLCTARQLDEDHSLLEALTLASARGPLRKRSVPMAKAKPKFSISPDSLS
# Sequence of Kir6.2-GFP + SUR1 (Q09428 whole entry partner): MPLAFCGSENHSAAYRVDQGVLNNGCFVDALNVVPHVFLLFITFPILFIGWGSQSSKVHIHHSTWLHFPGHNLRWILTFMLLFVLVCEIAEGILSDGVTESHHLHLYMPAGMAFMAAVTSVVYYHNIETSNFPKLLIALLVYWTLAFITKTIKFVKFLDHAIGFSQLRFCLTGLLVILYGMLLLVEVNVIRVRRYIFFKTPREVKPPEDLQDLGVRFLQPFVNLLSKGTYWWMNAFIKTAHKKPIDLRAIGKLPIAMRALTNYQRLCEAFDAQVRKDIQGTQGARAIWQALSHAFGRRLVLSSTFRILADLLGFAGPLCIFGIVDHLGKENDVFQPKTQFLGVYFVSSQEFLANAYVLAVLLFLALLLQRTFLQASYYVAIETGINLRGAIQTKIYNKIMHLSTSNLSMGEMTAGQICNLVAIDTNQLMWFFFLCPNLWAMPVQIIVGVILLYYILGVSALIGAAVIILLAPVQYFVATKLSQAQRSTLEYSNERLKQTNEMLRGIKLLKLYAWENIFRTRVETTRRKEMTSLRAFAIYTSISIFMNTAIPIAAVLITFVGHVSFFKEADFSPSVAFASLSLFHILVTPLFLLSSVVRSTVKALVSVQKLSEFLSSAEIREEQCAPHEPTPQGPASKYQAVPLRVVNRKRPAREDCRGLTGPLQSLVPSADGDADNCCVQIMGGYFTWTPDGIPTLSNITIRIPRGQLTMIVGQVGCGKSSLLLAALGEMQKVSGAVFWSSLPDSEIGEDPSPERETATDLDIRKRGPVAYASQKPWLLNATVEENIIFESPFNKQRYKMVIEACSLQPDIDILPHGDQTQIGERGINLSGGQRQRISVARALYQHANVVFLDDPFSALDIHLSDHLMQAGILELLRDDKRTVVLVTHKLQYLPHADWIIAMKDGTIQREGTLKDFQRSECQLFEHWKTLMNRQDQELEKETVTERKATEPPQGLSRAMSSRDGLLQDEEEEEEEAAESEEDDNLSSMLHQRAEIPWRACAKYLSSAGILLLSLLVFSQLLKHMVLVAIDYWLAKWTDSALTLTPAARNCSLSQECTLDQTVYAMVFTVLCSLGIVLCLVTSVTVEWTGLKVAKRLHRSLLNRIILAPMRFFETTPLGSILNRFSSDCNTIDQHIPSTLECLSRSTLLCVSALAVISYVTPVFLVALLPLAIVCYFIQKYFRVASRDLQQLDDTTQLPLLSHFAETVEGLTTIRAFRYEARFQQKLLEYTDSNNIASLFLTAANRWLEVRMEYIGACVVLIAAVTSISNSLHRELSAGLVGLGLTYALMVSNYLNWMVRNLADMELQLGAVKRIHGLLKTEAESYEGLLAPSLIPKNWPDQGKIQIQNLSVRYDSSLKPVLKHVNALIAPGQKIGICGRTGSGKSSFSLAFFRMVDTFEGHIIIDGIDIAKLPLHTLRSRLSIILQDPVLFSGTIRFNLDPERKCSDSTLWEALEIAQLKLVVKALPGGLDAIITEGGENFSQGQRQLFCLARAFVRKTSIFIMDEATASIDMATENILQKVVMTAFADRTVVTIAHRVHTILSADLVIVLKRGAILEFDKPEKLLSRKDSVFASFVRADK
# Description: Currents were measured from patches from cells expressing KATP that were excised in the absence of Mg^2+. Under such conditions, nucleotides can bind to both sites on SUR1, but no activation occurs, allowing inhibitory currents to be measured in isolation ([Gribble et al., 1998]; [Ueda et al., 1999]; [Puljung et al., 2019]).
# Kir6.2*,C166S-GFP + SUR1 = Kir6.2*,C166S-GFP + SUR1 (Homo sapiens, UniProt Q14654, C166S); assay: Bayesian MWC-type model fits to combined patch-clamp fluorometry data; assay type: biochemical; design: ANAP labelling is specific and only full-length Kir6.2 is expressed at the cell membrane; expressed in transfected cells; host or cells: HEK-293T; details: for Kd: read-out: KA (intrinsic binding affinity to the closed state) (converted)
# Sequence of Kir6.2*,C166S-GFP + SUR1 (Q14654 whole entry C166S): as the sequence (Q14654 whole entry) above, with C166S counted along it
# Sequence of Kir6.2*,C166S-GFP + SUR1 (Q09428 whole entry partner): as the sequence (Q09428 whole entry partner) above
# Text: Our simultaneous binding and current measurements were well fit with a Monod-Wyman-Changeux (MWC)-type model (Figure 2D,E; [Monod et al., 1965]) which has been previously proposed to explain KATP channel inhibition ([Enkvetchakul and Nichols, 2003]; [Craig et al., 2008]; [Vedovato et al., 2015]). In our MWC-type model, each ligand binding event ( KA ) is independent and each bound ligand favours the closed state by the same factor ( D ). Simultaneous measurement of binding (fluorescence) and gating (current) allowed us to obtain well constrained fits to our model. To obtain free parameter ( L , KA , D ) estimates and verify that each parameter was well and uniquely determined, we employed a Bayesian Markov chain Monte Carlo (MCMC) method previously employed by [Hines et al. (2014)]. Using this approach, we constructed posterior probability distributions for the free parameters of our MWC-type model (Figure 2F, Table 3). […] Our estimate of L was quite low and broadly distributed. We repeated our fits with L fixed to a value consistent with previous single channel measurements (0.8, Popen=0.45; [John et al., 1998]; [Enkvetchakul et al., 2000]; [Ribalet et al., 2006]). This had only a very small effect on our estimates of D and KA (Figure 2—figure supplement 1). The broad distribution of L in our fit may represent current rundown which occurs during our patch-clamp recordings and is expected to affect the open-closed equilibrium.
# In addition to the full MWC-type model we considered alternate models (Figure 2—figure supplement 2). These included a model in which only the first binding event influences the open-closed equilibrium of the channel (single-binding model; Figure 2—figure supplement 2B, Table 3), and an MWC-style model with an additional parameter C to allow for direct negative cooperativity between binding sites (negative cooperativity model; Figure 2—figure supplement 2C, Table 3). The single-binding model yielded very similar parameter estimates to our full MWC-type model (Figure 2—figure supplement 2D, Table 3). This is a consequence of D being so low that even in the MWC-type model most channels are closed when only a single nucleotide is bound. The cooperative model improved our fits, but not enough to justify the inclusion of an additional free parameter (see Discussion).
# The MWC-type models considered (Figure 2 and Figure 2—figure supplement 2) were formulated as follows:(3) F/Fmax=KA[TNPATP](1+KA[TNPATP])^3+LDKA[TNPATP](1+DKA[TNPATP])^3/(1+KA[TNPATP])^4+L(1+DKA[TNPATP])^4 (4) open channels/total channels=L(1+DKA[TNPATP])^4/(1+KA[TNPATP])^4+L(1+DKA[TNPATP])^4
# The first was similar to the MWC-type model, except that the channels close after one molecule of TNP-ATP binding with subsequent binding events having no effect.(7) F/Fmax=LDKA[TNPATP](1+3KA[TNPATP]+3KA2[TNPATP]^2+KA3[TNPATP]^3)+KA[TNPATP](1+KA[TNPATP])^3/L(1+4DKA[TNPATP]+6DKA2[TNPATP]^2+4DKA3[TNPATP]^3+DKA4[TNPATP]^4)+(1+KA[TNPATP])^4 (8) I/Imax=L(1+4DKA[TNPATP]+6DKA2[TNPATP]^2+4DKA3[TNPATP]^3+DKA4[TNPATP]^4)/L(1+4DKA[TNPATP]+6DKA2[TNPATP]^2+4DKA3[TNPATP]^3+DKA4[TNPATP]^4)+(1+KA[TNPATP])^4⋅1+L/L
# The second alternate model was the same as the full MWC model, but with an additional term C describing binding cooperativity between Kir6.2 subunits.(9) F/Fmax=LDKA[TNPATP](1+3CDKA[TNPATP]+3C^2D^2KA2[TNPATP]^2+C^3D^3KA3[TNPATP]^3)+KA[TNPATP](1+3CKA[TNPATP])+3C^2KA2[TNPATP]^2+C^3KA3[TNPATP]^3)/L(1+4DKA[TNPATP]+6CD^2KA2[TNPATP]^2+4C^2D^3KA3[TNPATP]^3+C^3D^4KA4[TNPATP]^4)+1+4KA[TNPATP]+6CKA2[TNPATP]^2+4C^2KA3[TNPATP]^3+C^3KA4[TNPATP]^4 (10) I/Imax=L(1+4DKA[TNPATP]+6CD^2KA2[TNPATP]^2+4C^2D^3KA3[TNPATP]^3+C^3D^4KA4[TNPATP]^4)/L(1+4DKA[TNPATP]+6CD^2KA2[TNPATP]^2+4C^2D^3KA3[TNPATP]^3+C^3D^4KA4[TNPATP]^4)+1+4KA[TNPATP]+6C^2KA2[TNPATP]^2+4C^2KA3[TNPATP]^3+C^3KA4[TNPATP]^4⋅1+L/L […]
# [1] = Full MWC model, median estimate
# [2] = Single-site (single-binding) model
smiles,measurement,setting,value
"Nc1ncnc2c1ncn2[C@@H]1O[C@H](COP(=O)(O)OP(=O)(O)OP(=O)(O)O)[C@H]2OC3(O[C@H]21)C([N+](=O)[O-])=CC(=[N+]([O-])[O-])C=C3[N+](=O)[O-] (stereo partly drawn) [TNP-ATP, trinitrophenyl-ATP]",IC50,Kir6.2-GFP + SUR1; IC50 current inhibition,1200 nM and 1170 nM
same,h (Hill coefficient) current inhibition,Kir6.2-GFP + SUR1,1.14
same,D (factor by which nucleotide binding favours channel closure),"Kir6.2*,C166S-GFP + SUR1; [1]",0.84
same,L (unliganded open-closed equilibrium constant),"Kir6.2*,C166S-GFP + SUR1; [1]",0.29 log10
same,Kd,"Kir6.2*,C166S-GFP + SUR1; [1]",66.1 µM
same,C (binding cooperativity between Kir6.2 subunits),"Kir6.2*,C166S-GFP + SUR1; Negative cooperativity model",0.52
same,D (factor by which nucleotide binding favours channel closure),"Kir6.2*,C166S-GFP + SUR1; Negative cooperativity model",0.83
same,L (unliganded open-closed equilibrium constant),"Kir6.2*,C166S-GFP + SUR1; Negative cooperativity model",0.32 log10
same,Kd,"Kir6.2*,C166S-GFP + SUR1; Negative cooperativity model",37.2 µM
same,D (factor by which nucleotide binding favours channel closure),"Kir6.2*,C166S-GFP + SUR1; [2]",0.70
same,L (unliganded open-closed equilibrium constant),"Kir6.2*,C166S-GFP + SUR1; [2]",0.09 log10
same,Kd,"Kir6.2*,C166S-GFP + SUR1; [2]",70.8 µM
